The source of these data is patent US12252524B2, “GIP/GLP1 co-agonist compounds” (Eli Lilly and Company, priority 2018, dated 2025).

One assay addresses T1, human Gcg receptor (Homo sapiens, UniProt P47871).
T1 construct: expressed in transfected cells; crude membranes
Kind of assay: [125I]-Glucagon binding (SPA), human Gcg receptor. The following applies: read-out: hGLcgR Ki, nM (SEM, n). In outline:
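Cell pellets were lysed in hypotonic Tris buffer, pH 7.5, homogenized, and spun at low then high speed to give crude membranes. Ki was derived from the fitted IC50.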

In assay [1] the target is human GLP-1 receptor (GLP-1R) (Homo sapiens, UniProt P43220). Put plainly: cAMP pharmacological functional assay in presence of casein, hGLP-1R. It is filed as cell-based. The following applies: HEK293 cells expressing hGLP-1R, 0.1% Casein, geometric mean; read-out: hGLP1R cAMP Rel EC50 nM (SEM, n).
The target in assay [2] is T2, human GLP-1R (Homo sapiens, UniProt P43220). Kind of assay: [125I]-GLP-1 binding (SPA), human GLP-1 receptor. Set-up: expressed in transfected cells; crude membranes. The following applies: read-out: hGLP1R Ki, (nM) (SEM, n). In outline: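 Ki values are geometric means with SEM over independent replicates on different days, derived from IC50s fitted by four-parameter nonlinear regression. The assay used crude cell membranes in HEPES buffer, pH 7.4, containing CaCl2, MgCl2, bacitracin and TWEEN-20.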

For assay [3], the target named is T2, human GLP-1R. Kind of assay: GLP-1R CHO cell β-arrestin recruitment assay. Format: cell-based. Set-up: host or cells: CHO-K1 PathHunter cells, assay-ready frozen. As to conditions: for EC50: CHO-K1 cells, PathHunter β-arrestin-2 recruitment, 0.1% casein, read-out: hGLP1R B-Arrestin2 Rel EC50 uM (SEM, n); for hGLP1R B-Arrestin2 % Top: normalized to GLP-1 maximum control. In outline:
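Peptide-induced β-arrestin-2 recruitment measured by enzyme-fragment complementation luminescence after 90 min at 37 °C plus 60 min detection at RT.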
For orientation: Recruitment of arrestin is a read-out of receptor activation apart from second messengers.

For assay [4], the target named is T2, human GLP-1R. Put plainly: GLP-1R HEK293 cell membrane [35S]GTPγS binding assay. It is filed as biochemical. Also on record: expressed in transfected cells; host or cells: HEK293 cells expressing human GLP-1R; membranes. The following applies: HEK293 cell membranes expressing human GLP-1R, [35S]GTPγS binding; read-out: hGLP1R GTPgS Rel EC50 nM (SEM, n). A digest of the protocol: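 Agonist-driven Gαs activation read as [35S]GTPγS ([…]) binding to receptor-expressing HEK293 membranes, 30 min at room temperature, pH 7.4. Detection by anti-Gαs immunocapture on scintillation beads; EC50 derived from four-parameter logistic concentration-response fit.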

In another assay the target is T3, human GIP receptor (Homo sapiens, UniProt P48546).
T3 construct: expressed in transfected cells; crude membranes
T3 sequence (P48546 22-466): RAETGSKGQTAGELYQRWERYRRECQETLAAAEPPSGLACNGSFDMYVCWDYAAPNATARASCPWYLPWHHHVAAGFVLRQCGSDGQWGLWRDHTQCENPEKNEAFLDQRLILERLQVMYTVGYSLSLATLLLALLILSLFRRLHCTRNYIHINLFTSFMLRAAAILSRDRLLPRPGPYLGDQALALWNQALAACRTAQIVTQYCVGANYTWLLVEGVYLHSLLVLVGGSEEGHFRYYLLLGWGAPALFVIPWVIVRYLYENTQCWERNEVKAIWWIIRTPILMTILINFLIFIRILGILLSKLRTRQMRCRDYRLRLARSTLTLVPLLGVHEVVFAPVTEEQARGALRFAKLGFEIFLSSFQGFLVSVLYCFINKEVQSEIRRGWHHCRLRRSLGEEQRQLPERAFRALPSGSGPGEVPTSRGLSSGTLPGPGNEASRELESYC
Put plainly: [125I]-GIP binding (SPA), human GIP receptor. As to conditions: read-out: hGIPR Ki, nM (SEM, n).

The target of assay [5] is T4, gastric inhibitory peptide receptor (GIPR) (Homo sapiens, UniProt P48546).
T4 sequence (P48546 22-466): T3 sequence (P48546 22-466)
Kind of assay: cAMP pharmacological functional assay in presence of casein, hGIPR. As to conditions: HEK293 cells expressing hGIPR, 0.1% Casein, geometric mean; read-out: hGIPR cAMP Rel EC50 nM (SEM, n). It is filed as cell-based.

Structures are written as SMILES. Numbered stars: 1 amine (or outer) side, 2 acyl side, 3 side chain; on linkers, the order of the positions; unused ones are H or OH. Square brackets hold non-standard residues; d marks the D form. Side chains are listed from the residue outwards. Peptide text beside a SMILES is read from it. * marks the point of attachment. C20 diacid = O=C(O)CCCCCCCCCCCCCCCCCCC(=O)*; γGlu = O=C(O)[C@H](CCC(=O)[*:2])N[*:1]; αMeL = CC(C)C[C@](C)(N)C(=O)O; Orn = NCCC[C@H](N)C(=O)O; AEEA = NCCOCCOCC(=O)O; Aib = CC(C)(N)C(=O)O Where only a bound is given, the exact number is not on record here.

T1 sequence (P47871 26-477): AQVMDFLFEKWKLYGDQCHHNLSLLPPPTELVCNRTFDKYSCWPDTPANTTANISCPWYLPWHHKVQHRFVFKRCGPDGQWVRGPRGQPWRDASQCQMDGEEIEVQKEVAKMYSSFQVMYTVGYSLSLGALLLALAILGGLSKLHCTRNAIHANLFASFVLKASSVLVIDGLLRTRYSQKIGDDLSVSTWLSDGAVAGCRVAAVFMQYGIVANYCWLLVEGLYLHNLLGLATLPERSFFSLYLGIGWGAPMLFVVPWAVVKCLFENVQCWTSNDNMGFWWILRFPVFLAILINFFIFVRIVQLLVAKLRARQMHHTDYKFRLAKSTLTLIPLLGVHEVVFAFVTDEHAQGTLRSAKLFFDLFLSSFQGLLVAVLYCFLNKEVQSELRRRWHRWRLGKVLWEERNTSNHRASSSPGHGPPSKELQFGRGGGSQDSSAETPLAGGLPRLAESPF
T2 sequence (P43220 24-463): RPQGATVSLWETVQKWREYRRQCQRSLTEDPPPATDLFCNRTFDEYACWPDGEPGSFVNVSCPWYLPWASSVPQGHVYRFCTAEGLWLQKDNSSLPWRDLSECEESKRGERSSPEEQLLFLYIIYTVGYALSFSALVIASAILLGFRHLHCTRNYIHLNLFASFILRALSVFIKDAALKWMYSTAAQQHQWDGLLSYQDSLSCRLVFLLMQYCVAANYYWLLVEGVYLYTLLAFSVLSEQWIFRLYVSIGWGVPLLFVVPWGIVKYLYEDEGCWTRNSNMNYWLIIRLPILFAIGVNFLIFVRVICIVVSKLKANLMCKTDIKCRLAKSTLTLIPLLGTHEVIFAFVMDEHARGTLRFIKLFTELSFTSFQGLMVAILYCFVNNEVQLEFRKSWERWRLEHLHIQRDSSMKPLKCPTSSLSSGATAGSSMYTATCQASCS
Chain of human GLP-1 receptor (GLP-1R) (P43220 24-463): as above

Broadly, the Ki is the dissociation constant of the complex between target and ligand, obtained from inhibition or displacement. As a reminder, the EC50 is the concentration giving half of the maximal effect. Regarding `CC[C@H](C)[C@H](NC(=O)[C@H](CC(C)C)NC(=O)[C@H](Cc1ccc(O)cc1)NC(=O)[C@@H](CCC(=O)O)NC(=O)[C@@H](NC(=O)[C@H](Cc1ccccc1)NC(=O)[C@H](C)NC(=O)C(C)(C)NC(=O)[C@H](CCC(N)=O)NC(=O)[C@H](C)NC(=O)[C@H](CCCCNC(=O)COCCOCCNC(=O)COCCOCCNC(=O)CC[C@H](NC(=O)CCCCCCCCCCCCCCCCCCC(=O)O)C(=O)O)NC(=O)[C@H](CCC(=O)O)NC(=O)[C@H](CC(=O)O)NC(=O)[C@H](CC(C)C)NC(=O)[C@](C)(CC(C)C)NC(=O)[C@@H](NC(=O)[C@H](CO)NC(=O)[C@H](Cc1ccc(O)cc1)NC(=O)[C@H](CC(=O)O)NC(=O)[C@H](CO)NC(=O)[C@@H](NC(=O)[C@H](Cc1ccccc1)NC(=O)[C@@H](NC(=O)CNC(=O)[C@H](CCC(=O)O)NC(=O)C(C)(C)NC(=O)[C@@H](N)Cc1ccc(O)cc1)[C@@H](C)O)[C@@H](C)O)[C@@H](C)CC)[C@@H](C)CC)C(=O)N[C@@H](C)C(=O)NCC(=O)NCC(=O)N1CCC[C@H]1C(=O)N[C@@H](CO)C(=O)N[C@@H](CO)C(=O)NCC(=O)N[C@@H](C)C(=O)N1CCC[C@H]1C(=O)N1CCC[C@H]1C(=O)N1CCC[C@H]1C(=O)N[C@@H](CO)C(N)=O` [Example 343] (H-Y[Aib]EGTFTSDYSI[αMeL]LDEK([AEEA-AEEA-γGlu-C20 diacid])AQ[Aib]AFI[dE]YLIAGGPSSGAPPPS-NH2), the Ki is over 1070 nM at human Gcg receptor, 13.3 nM at human GLP-1R [2] and 0.0374 nM at human GIP receptor. The EC50 in assay [1] was 0.124 nM; at human GLP-1R [3] it was 0.0455 µM; on human GLP-1R [4] it was 0.522 nM; in assay [5], 0.0422 nM. The “hGLP1R B-Arrestin2 % Top” value on human GLP-1R [3] stood at 41.4%.
Turning to `CC[C@H](C)[C@H](NC(=O)[C@H](CC(C)C)NC(=O)[C@H](Cc1ccc(O)cc1)NC(=O)[C@H](CCC(=O)O)NC(=O)[C@@H](NC(=O)[C@H](Cc1ccccc1)NC(=O)[C@H](CC(=O)O)NC(=O)C(C)(C)NC(=O)[C@H](CCC(N)=O)NC(=O)[C@H](C)NC(=O)[C@H](CCCCNC(=O)COCCOCCNC(=O)COCCOCCNC(=O)CC[C@H](NC(=O)CCCCCCCCCCCCCCCCCCC(=O)O)C(=O)O)NC(=O)[C@H](CCC(=O)O)NC(=O)[C@H](CC(=O)O)NC(=O)[C@H](CC(C)C)NC(=O)[C@](C)(CC(C)C)NC(=O)[C@@H](NC(=O)[C@H](CO)NC(=O)[C@H](Cc1ccc(O)cc1)NC(=O)[C@H](CC(=O)O)NC(=O)[C@H](CO)NC(=O)[C@@H](NC(=O)[C@H](Cc1ccccc1)NC(=O)[C@@H](NC(=O)CNC(=O)[C@H](CCC(=O)O)NC(=O)C(C)(C)NC(=O)[C@@H](N)Cc1ccc(O)cc1)[C@@H](C)O)[C@@H](C)O)[C@@H](C)CC)[C@@H](C)CC)C(=O)N[C@@H](C)C(=O)NCC(=O)NCC(=O)N1CCC[C@H]1C(=O)N[C@@H](CO)C(=O)N[C@@H](CO)C(=O)NCC(=O)N[C@@H](C)C(=O)N1CCC[C@H]1C(=O)N1CCC[C@H]1C(=O)N1CCC[C@H]1C(=O)N[C@@H](CO)C(N)=O` [Example 344] (H-Y[Aib]EGTFTSDYSI[αMeL]LDEK([AEEA-AEEA-γGlu-C20 diacid])AQ[Aib]DFIEYLIAGGPSSGAPPPS-NH2), the Ki on human Gcg receptor is over 1080 nM; at human GLP-1R [2], 14.8 nM; at human GIP receptor it was 0.0507 nM. The EC50 in assay [1] came to 0.044 nM; on human GLP-1R [3], 0.0343 µM; at human GLP-1R [4], 0.423 nM; in assay [5], 0.0433 nM. Besides, at human GLP-1R [3], the “hGLP1R B-Arrestin2 % Top” value was determined as 46%.
With `CC[C@H](C)[C@H](NC(=O)[C@H](CC(C)C)NC(=O)[C@H](Cc1ccc(O)cc1)NC(=O)[C@H](CCC(=O)O)NC(=O)[C@@H](NC(=O)[C@H](Cc1ccccc1)NC(=O)[C@H](C)NC(=O)C(C)(C)NC(=O)[C@H](CCC(N)=O)NC(=O)[C@H](C)NC(=O)[C@H](CCCCNC(=O)COCCOCCNC(=O)COCCOCCNC(=O)CC[C@H](NC(=O)CCCCCCCCCCCCCCCCCCC(=O)O)C(=O)O)NC(=O)[C@H](CCCN)NC(=O)[C@H](CC(=O)O)NC(=O)[C@H](CC(C)C)NC(=O)[C@](C)(CC(C)C)NC(=O)[C@@H](NC(=O)[C@H](CO)NC(=O)[C@H](Cc1ccc(O)cc1)NC(=O)[C@H](CC(=O)O)NC(=O)[C@H](CO)NC(=O)[C@@H](NC(=O)[C@H](Cc1ccccc1)NC(=O)[C@@H](NC(=O)CNC(=O)[C@H](CCC(=O)O)NC(=O)C(C)(C)NC(=O)[C@H](N)Cc1ccc(O)cc1)[C@@H](C)O)[C@@H](C)O)[C@@H](C)CC)[C@@H](C)CC)C(=O)N[C@@H](C)C(=O)NCC(=O)NCC(=O)N1CCC[C@H]1C(=O)N[C@@H](CO)C(=O)N[C@@H](CO)C(=O)NCC(=O)N[C@@H](C)C(=O)N1CCC[C@H]1C(=O)N1CCC[C@H]1C(=O)N1CCC[C@H]1C(=O)N[C@@H](CO)C(N)=O` [Example 346] (H-[dY][Aib]EGTFTSDYSI[αMeL]LD[Orn]K([AEEA-AEEA-γGlu-C20 diacid])AQ[Aib]AFIEYLIAGGPSSGAPPPS-NH2), the Ki came to 310 nM on human Gcg receptor, 1.67 nM at human GLP-1R [2] and 0.0559 nM at human GIP receptor. Also, the half-maximal effective concentration (EC50) in assay [1] came out at 0.128 nM; on human GLP-1R [3] it was 0.00325 µM; on human GLP-1R [4] it was 0.737 nM; in assay [5] it was 0.144 nM. The “hGLP1R B-Arrestin2 % Top” value at human GLP-1R [3] is 19.3%.
For the compound `CC[C@H](C)[C@H](NC(=O)[C@H](CC(C)C)NC(=O)[C@H](Cc1ccc(O)cc1)NC(=O)[C@H](CCC(=O)O)NC(=O)[C@@H](NC(=O)[C@H](Cc1ccccc1)NC(=O)[C@H](CCC(=O)O)NC(=O)C(C)(C)NC(=O)[C@H](CCC(N)=O)NC(=O)[C@H](C)NC(=O)[C@H](CCCCNC(=O)COCCOCCNC(=O)COCCOCCNC(=O)CC[C@H](NC(=O)CCCCCCCCCCCCCCCCCCC(=O)O)C(=O)O)NC(=O)[C@H](CCCN)NC(=O)[C@H](CC(=O)O)NC(=O)[C@H](CC(C)C)NC(=O)[C@](C)(CC(C)C)NC(=O)[C@@H](NC(=O)[C@H](CO)NC(=O)[C@H](Cc1ccc(O)cc1)NC(=O)[C@H](CC(=O)O)NC(=O)[C@H](CO)NC(=O)[C@@H](NC(=O)[C@H](Cc1ccccc1)NC(=O)[C@@H](NC(=O)CNC(=O)[C@H](CCC(=O)O)NC(=O)C(C)(C)NC(=O)[C@H](N)Cc1ccc(O)cc1)[C@@H](C)O)[C@@H](C)O)[C@@H](C)CC)[C@@H](C)CC)C(=O)N[C@@H](C)C(=O)NCC(=O)NCC(=O)N1CCC[C@H]1C(=O)N[C@@H](CO)C(=O)N[C@@H](CO)C(=O)NCC(=O)N[C@@H](C)C(=O)N1CCC[C@H]1C(=O)N1CCC[C@H]1C(=O)N1CCC[C@H]1C(=O)N[C@@H](CO)C(N)=O` [Example 349] (H-[dY][Aib]EGTFTSDYSI[αMeL]LD[Orn]K([AEEA-AEEA-γGlu-C20 diacid])AQ[Aib]EFIEYLIAGGPSSGAPPPS-NH2), the results for the Ki on human Gcg receptor, at human GLP-1R [2] and at human GIP receptor were over 1060 nM, 1.72 nM and 0.08 nM, respectively. Also, the EC50 is 0.121 nM in assay [1], 0.0151 µM at human GLP-1R [3], 0.464 nM at human GLP-1R [4] and 0.117 nM in assay [5]. The “hGLP1R B-Arrestin2 % Top” value on human GLP-1R [3] was found to be 18.4%.
